# Data reported in PMC5374710, “Discovery of the first dual GSK3β inhibitor/Nrf2 inducer. A new multitarget therapeutic strategy for Alzheimer’s disease” (Scientific Reports, 2017).
# Test system: NOX2
# Test: NOX2 expression in LPS-stimulated primary glial cultures (western blot)
# Format: cell-based, rat
# Details: 30 μM, LPS 1 μg/mL 24 h (LPS alone 65.3%)
# Description: TNFα is considered one of the most important pro-inflammatory cytokines. […] The production of TNFα induced by LPS was reduced by 33% at 10 μM and by 50% at 30 μM. […] To further confirm the anti-inflammatory potential of compound 5c we measured the expression of thre NOX2 enzyme, since this isoform has been widely described as being specific tomicroglial cells. As depicted in Fig. 6F, LPS (1 μg/mL) stimulation of primary glial cultures during 24 h increased the expression of NOX2 by 65.3% (p < 0.01) compared to basal conditions.
# Figure 6 Nitrites (A), TNFα (B), iNOS (C) and NOX activity (E) blockade (D) and NOX2 production (F) by 5c in primary glial cultures stimulated with LPS (1 μg/mL), HO-1 expression induced by this compound after 24 h. […] NOX activity was measured after 4 h co-treatment with LPS and compound 5c. […]
# After treatment, mixed glial cells were washed with cold PBS and lysed in 100 μl ice-cold lysis buffer (1% Nonident P-40, 10% glycerol, 137 mM NaCl, 20 mM Tris HCl pH 7.5, 1 μg/ml leupeptin, 1 mM phenylmethylsulfonyl fluoride, 20 mM NaF, 1 mM sodium pyrophosphate, and 1 mM Na3VO4). […] Peroxidase-conjugated secondary antibodies (1:10000) were used to detect proteins by enhanced chemiluminescence detected by Advance Western-blotting Detection Kit (GE Healthcare, Barcelona, Spain). […]
smiles,measurement,value
"COc1cccc(C2C(C#N)=C(N)Oc3n[nH]c(C)c32)c1 (stereo not shown) [Compound 5c, 6-Amino-4-(3-methoxyphenyl)-3-methyl-2,4-dihydropyrano[2,3-c]pyrazole-5-carbonitrile]",NOX2 expression increase compared to basal conditions in presence of LPS,11.1%
